Here are results for two molecules from ChEMBL document CHEMBL1799914, “Design and synthesis of small molecule RhoA inhibitors: a new promising therapy for cardiovascular diseases?” (J Med Chem, 2011).

Assay [1] has as its system Aorta. The assay is described as follows: Vasorelaxant activity in Sprague-Dawley rat endothelium thoracic aortic ring assessed as inhibition of phenylephrine-induced submaximal contraction at 180 uM measured after 5 mins. It counts as functional.
Assay [2] has as its system Aorta. The assay is described as follows: Vasorelaxant activity in Sprague-Dawley rat endothelium thoracic aortic ring assessed as inhibition of phenylephrine-induced submaximal contraction measured after 5 mins.

Molecules are shown by their SMILES. pIC50: −log10 of the molar value.

One may read the inhibition as how much of the control response was suppressed. For orientation: pIC50 means the negative decadic logarithm of the IC50, by convention in mol/L. On to `OC/C=C/c1cccc(Nc2cnc3ccccc3n2)c1`, for which the inhibition at 180 µM in assay [1] was found to be 78.6%. In addition, the negative-log IC50 (pIC50) in assay [2] was 3.87.

For `O=C(O)/C=C/c1cccc(Nc2ccc3ccccc3n2)c1`, in assay [1], the inhibition at 180 µM worked out at 55.9%. Also, the pIC50 in assay [2] is 3.79.
